The results in this text go back to ChEMBL document CHEMBL4411281, “Unravel a neuroactive sHA sulfation pattern with neurogenesis activity by a library of defined oligosaccharides” (Eur J Med Chem, 2019).

The Kd is the equilibrium constant for the complex coming apart.

Structures are written as SMILES. Calls of active or inactive are those of the source. No cut-off for these calls is given here.

Experiment [1] deals with T1, Neurotrophic factor BDNF precursor form (Homo sapiens, UniProt P23560).
T1 sequence (P23560 whole entry): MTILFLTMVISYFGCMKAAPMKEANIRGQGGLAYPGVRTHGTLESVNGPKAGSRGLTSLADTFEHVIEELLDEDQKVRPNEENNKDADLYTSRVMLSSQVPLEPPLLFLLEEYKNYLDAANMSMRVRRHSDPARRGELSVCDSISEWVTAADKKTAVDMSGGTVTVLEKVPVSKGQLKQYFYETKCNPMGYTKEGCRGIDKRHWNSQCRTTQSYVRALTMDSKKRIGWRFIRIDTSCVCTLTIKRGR
The experiment is described as follows: Binding affinity to BDNF (unknown origin) by SPR assay.

Experiment [2] has as its target T2, Pleiotrophin (Homo sapiens, UniProt P21246).
T2 sequence (P21246 whole entry): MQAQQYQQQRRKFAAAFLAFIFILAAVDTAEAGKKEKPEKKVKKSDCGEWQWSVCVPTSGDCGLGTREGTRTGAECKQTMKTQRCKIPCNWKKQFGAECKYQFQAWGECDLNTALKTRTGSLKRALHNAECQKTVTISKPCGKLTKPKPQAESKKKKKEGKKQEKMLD
Description: Binding affinity to PTN (unknown origin) by SPR assay. (SPR reads the build-up and loss of mass on a sensor chip optically.)

A short description of experiment [3]: Induction of neurite outgrowth in Sprague-Dawley E18 rat hippocampal neurons assessed as neurite length after 24 hrs by DAPI staining-based assay relative to control. Format: functional, Hippocampal neurone.
In experiment [4] the test system is Hippocampal neurone. The experiment is described as follows: Induction of neurite outgrowth in Sprague-Dawley E18 rat hippocampal neurons assessed as neurite length at 250 ug/ml solubilized in culture media after 24 hrs by DAPI staining-based assay relative to control. Format: functional, cell-based.
The test system of experiment [5] is Hippocampal neurone. The experiment is described as follows: Induction of neurite outgrowth in Sprague-Dawley E18 rat hippocampal neurons assessed as neurite length at 50 ug/ml in presence of Proteus vulgaris Chondroitinase ABC after 12 hrs by DAPI staining-based assay relative to control. Format: functional, cell-based.
Experiment [6] addresses Fibroblast growth factor 1 (Homo sapiens) (UniProt P05230). The experiment is described as follows: Binding affinity to FGF-1 (unknown origin) at 800 nM by SPR assay.
Experiment [7] addresses T3, Midkine (Homo sapiens, UniProt P21741).
T3 sequence (P21741 whole entry): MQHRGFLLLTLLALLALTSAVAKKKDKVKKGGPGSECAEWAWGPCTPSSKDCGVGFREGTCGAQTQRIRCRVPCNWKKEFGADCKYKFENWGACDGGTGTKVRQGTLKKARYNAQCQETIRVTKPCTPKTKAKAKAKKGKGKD
The experiment is described as follows: Binding affinity to MDK (unknown origin) by SPR assay.

The subject of experiment [8] is Hippocampal neurone. The experiment is described as follows: Induction of neurite outgrowth in Sprague-Dawley E18 rat hippocampal neurons assessed as neurite length after 24 hrs in presence of anti-MDK antibody by DAPI staining-based assay relative to control. In kind it is functional, cell-based.
Experiment [9] concerns Hippocampal neurone. The experiment is described as follows: Induction of neurite outgrowth in Sprague-Dawley E18 rat hippocampal neurons assessed as neurite length after 24 hrs in presence of anti-BDNF antibody by DAPI staining-based assay relative to control. Format: functional, cell-based.
Experiment [10] has as its target T4, Midkine (Homo sapiens) (UniProt P21741).
T4 sequence (whole entry): T3 sequence (P21741 whole entry)
The experiment is described as follows: Binding affinity to MDK (unknown origin) at 800 nM by SPR assay.

In experiment [11] the target is T5, Pleiotrophin (Homo sapiens) (UniProt P21246).
T5 sequence (whole entry): T2 sequence (P21246 whole entry)
Description: Binding affinity to PTN (unknown origin) at 800 nM by SPR assay.

Experiment [12] has as its target T6, Neurotrophic factor BDNF precursor form (Homo sapiens) (UniProt P23560).
T6 sequence (whole entry): T1 sequence (P23560 whole entry)
The experiment is described as follows: Binding affinity to BDNF (unknown origin) at 800 nM by SPR assay.

Sequence of Fibroblast growth factor 1 (Homo sapiens) (P05230 whole entry): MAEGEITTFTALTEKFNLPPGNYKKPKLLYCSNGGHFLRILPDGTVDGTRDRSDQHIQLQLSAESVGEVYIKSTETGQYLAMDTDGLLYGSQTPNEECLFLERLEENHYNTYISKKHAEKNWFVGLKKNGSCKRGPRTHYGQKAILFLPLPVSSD

As to `CC(=O)N[C@H]1[C@H](O[C@H]2[C@H](O)[C@@H](O)[C@H](O[C@@H]3[C@@H](NC(C)=O)[C@H](OCCCCCCN=[N+]=[N-])O[C@H](COS(=O)(=O)O)[C@@H]3OS(=O)(=O)O)O[C@@H]2C(=O)O)O[C@H](COS(=O)(=O)O)[C@H](OS(=O)(=O)O)[C@@H]1O[C@@H]1O[C@H](C(=O)O)[C@@H](O)[C@H](O)[C@H]1O`, the dissociation constant (Kd) in [1] was determined as 0.155 µM; in [2] it was 0.365 µM; in [7] it was 0.0963 µM. Further, the Activity in [3] is reported as 29.6%. The result in [4], in [5] and in [6] was inactive.
Consider `CC(=O)N[C@H]1[C@H](O[C@H]2[C@H](O)[C@@H](O)[C@H](O[C@H]3[C@H](O)[C@@H](COS(=O)(=O)O)O[C@@H](OCCCCCCN=[N+]=[N-])[C@@H]3NC(C)=O)O[C@@H]2C(=O)O)O[C@H](COS(=O)(=O)O)[C@@H](O)[C@@H]1O[C@@H]1O[C@H](C(=O)O)[C@@H](O)[C@H](O)[C@H]1O`, for which the Kd was determined as 0.49 µM in experiment [1], 0.0778 µM in [2] and 0.0523 µM in experiment [7]. Further, the result in experiment [8], in experiment [9], in [4] and in experiment [6] was inactive. Also, in experiment [3], the Activity came to 27.3%.
As for `CC(=O)N[C@H]1[C@H](O[C@H]2[C@H](O)[C@@H](O)[C@H](O[C@@H]3[C@@H](NC(C)=O)[C@H](OCCCCCCN=[N+]=[N-])O[C@H](COS(=O)(=O)O)[C@H]3OS(=O)(=O)O)O[C@@H]2C(=O)O)O[C@H](COS(=O)(=O)O)[C@@H](OS(=O)(=O)O)[C@@H]1O[C@@H]1O[C@H](C(=O)O)[C@@H](O)[C@H](O)[C@H]1O`, the dissociation constant (Kd) in [1] came out at 0.659 µM. In [3], the Activity turned out to be 6.7%. Further, the outcome in experiment [10], in experiment [6] and in [11] was inactive.
Consider `CC(=O)N[C@H]1[C@H](O[C@H]2[C@H](O)[C@@H](O)[C@H](O[C@H]3[C@@H](O)[C@@H](COS(=O)(=O)O)O[C@@H](OCCCCCCN=[N+]=[N-])[C@@H]3NC(C)=O)O[C@@H]2C(=O)O)O[C@H](COS(=O)(=O)O)[C@H](O)[C@@H]1O[C@@H]1O[C@H](C(=O)O)[C@@H](O)[C@H](O)[C@H]1O`, for which, in experiment [3], the Activity is reported as 1%. Further, the outcome in experiment [12], in [10], in experiment [6] and in [11] was inactive.
For `CC(=O)N[C@H]1[C@H](O[C@H]2[C@H](O)[C@@H](O)[C@H](O[C@@H]3[C@@H](NC(C)=O)[C@H](OCCCCCCN=[N+]=[N-])O[C@H](CO)[C@H]3OS(=O)(=O)O)O[C@@H]2C(=O)O)O[C@H](CO)[C@@H](OS(=O)(=O)O)[C@@H]1O[C@@H]1O[C@H](C(=O)O)[C@@H](O)[C@H](O)[C@H]1O`, the outcome in experiment [12], in [10], in experiment [6] and in experiment [11] was inactive.
Regarding `CC(=O)N[C@H]1[C@H](O[C@H]2[C@H](O)[C@@H](O)[C@H](O[C@H]3[C@H](O)[C@@H](CO)O[C@@H](OCCCCCCN=[N+]=[N-])[C@@H]3NC(C)=O)O[C@@H]2C(=O)O)O[C@H](CO)[C@@H](O)[C@@H]1O[C@@H]1O[C@H](C(=O)O)[C@@H](O)[C@H](O)[C@H]1O`, the result in experiment [12], in experiment [10], in [6] and in [11] was inactive.
